According to article PMC9468151, “Identification of a binding site on soluble RANKL that can be targeted to inhibit soluble RANK-RANKL interactions and treat osteoporosis” (Nature Communications, 2022):
“And” between values parts separate entries of the source, which are not always exact repeats. Equal entries are not always repeated.

T1: sRANKL (Rattus norvegicus, UniProt Q9ESE2, D175N)
T1 construct: (1) sRANKL (rat 159-318 aa); His6-sumo (N, cleaved yes); made in house; host or cells: Escherichia coli BL21 (DE3)
T1 sequence (Q9ESE2 159-318 D175N): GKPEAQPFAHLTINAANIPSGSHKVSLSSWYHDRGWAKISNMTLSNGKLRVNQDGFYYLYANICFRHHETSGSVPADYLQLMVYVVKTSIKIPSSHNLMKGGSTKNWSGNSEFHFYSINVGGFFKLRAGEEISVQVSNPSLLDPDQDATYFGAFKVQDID

T2: recombinant RANK (mouse extracellular RANK fragment, residues 26-210) (mouse, UniProt O35305 26-210)
T2 construct: RANK (TNFRSF11A), mouse, extracellular fragment, residues 26-210, cloned into pET28a between Nde I and Xho I; In the functional rows the RANK that was present is the endogenous receptor on mouse bone marrow cells; also called soluble RANK
T2 sequence (looked up): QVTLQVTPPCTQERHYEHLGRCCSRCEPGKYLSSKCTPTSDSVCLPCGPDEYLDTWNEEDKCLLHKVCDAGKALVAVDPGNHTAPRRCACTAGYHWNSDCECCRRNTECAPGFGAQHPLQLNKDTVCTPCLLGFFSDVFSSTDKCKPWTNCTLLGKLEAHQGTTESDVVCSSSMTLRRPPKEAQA


How the values were obtained:
[1] = tested on: RAW264.7 cells; test: In vitro cytotoxicity assay (MTT); format: cell-based, mouse; conditions: RAW264.7, MTT
Method: MTT assay was used to determine cell viability. RAW264.7 cells in the logarithmic growth phase were cultured in 96-well plates with 6 × 10^3 cells in each well and incubated for 24 h. The surviving cells were then determined by MTT method. […] Cell growth inhibition ratio was calculated as follows: Cellgrowthinhibitionratio%=ODvehicle−ODtreaed/ODvehicle×100%
Cell cytotoxicity CC50 value were conducted by using Nonlinear regression (curve fit) analytic procedure in GraphPad Prism 8.

[2] = tested on: sRANKL induced osteoclast differentiation; test: In vitro anti-osteoclastogenesis activity determination (TRAP staining); format: cell-based, mouse; parameters: key to inhibition of osteoclastogenesis, dose-response (fig. S2a): % inhibition = 100 − (treated−unstimulated)/(untreated−unstimulated)×100; conditions: for inhibition of osteoclastogenesis, dose-response (fig. S2a): three replicate columns; for IC50: BMMs, M-CSF + 100 ng/mL sRANKL, 5 days, TRAP staining, read-out: OC IC50 (anti-osteoclastogenesis activity)
Method in brief: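 IC50 came from a nonlinear curve fit of percent inhibition, computed from TRAP-positive osteoclast counts against unstimulated and untreated wells. Cells were murine BMMs with M-CSF (10 ng/mL), exposed 5 days to 100 ng/mL sRANKL and nine compound levels, re-dosed every 2 days, in triplicate.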

[3] = target: T1, sRANKL; test: Surface plasmon resonance (SPR) assay; format: binding; conditions: immobilized sRANKL, 25 °C
Method: A ProteOn XPR36TM SPR instrument (BioRad Hercules, CA) was used for carrying out SPR assays. sRANKL protein in PBS buffer, pH 7.4, was diluted to 20 nM in 10 mM sodium acetate buffer, pH 5.5 and immobilized in parallelflow channels of a the EDAC/Sulfo-NHS activated surface of a GLH biosensor chip (Bio-Rad) with an amine coupling kit (Bio-Rad). The surface was blocked with 1 M ethanolamine. The final immobilization level for sRANKL was approximately 14,000 RU. A blank immobilization channel in the same GLH biosensor chip was also activated with EDAC/Sulfo-NHS and blocked with 1 M ethanolamine to use as a reference.
Biosensor binding experiments were conducted in filtered and degassed running buffer (PBS containing 0.005% Tween-20, pH 7.4) at 25 °C. Compounds was dissolved in 100% DMSO in appropriate different series concentrations of stock solutions. Before detecting, compounds were diluted in six or five concentrations with running buffer and ensured that the content of DMSO contained in each detected concentration was consistent. Compounds in different concentrations were injected simultaneously at a flow rate at […] for 180 s and 120 s for the association phase, followed by 180 s for the disassociation. Following the compound injection, the chip surface was regenerated with 40 s pulses of 0.85% H3PO4 and running buffer.
ProtedOn Manager 2.0. was used for data analysis. Each set of sensorgrams was globally analyzed using the 1:1 Langmuir binding model to obtain the kinetic rate constants (Kon and Koff). Global kinetic rate constants (ka and kd) were derived for each reaction, and the equilibrium dissociation constant, KD, was calculated using the equation KD = kd/ka.

[4] = target: T2, recombinant RANK (mouse extracellular …); test: pull-down; 120 ug GST-sRANKL on the resin in PBS with 1% BSA, room temperature; compounds (50 uM) or 0.8% DMSO control for 30 min, then 25 ug RANK for 20 min; SDS-PAGE, Coomassie blue; conditions: both partners purified
[5] = target: the molecule itself; test: cross-linking; cross-link assay of sRANKL with S3-15; methods not shown

Row | Molecule | CC50 [1] [µM] | inhibition of osteoclastogenesis, dose-response (fig. S2a) ([2]; conc. 0.0023464 μM) | inhibition of osteoclastogenesis, dose-response (fig. S2a) ([2]; conc. 0.00774313 μM) | inhibition of osteoclastogenesis, dose-response (fig. S2a) ([2]; conc. 0.0255523 μM) | inhibition of osteoclastogenesis, dose-response (fig. S2a) ([2]; conc. 0.0843226 μM) | inhibition of osteoclastogenesis, dose-response (fig. S2a) ([2]; conc. 0.278265 μM) | inhibition of osteoclastogenesis, dose-response (fig. S2a) ([2]; conc. 0.918274 μM) | inhibition of osteoclastogenesis, dose-response (fig. S2a) ([2]; conc. 3.0303 μM) | inhibition of osteoclastogenesis, dose-response (fig. S2a) ([2]; conc. 10 μM) | inhibition of osteoclastogenesis, dose-response (fig. S2a) ([2]; conc. 33 μM) | Kd [3] [µM] | IC50 [2] | binding result [4] | stoichiometry N [5]
1 | CC(=O)C(=NNc1ccccc1C(=O)O)C(=O)Nc1nccs1 [S3-09] | > 100 | -0.7659 (2×) and 2.516 | 0.2188 and -0.1094 and 1.86 | 6.455 and 3.501 and 2.845 | 10.3939 and 2.845 and 7.44 | 45.186 and 26.8053 and 32.3851 | 57.9869 (2×) and 48.7965 | 69.1466 and 68.8184 and 61.9256 | 80.6346 and 77.0241 and 79.6499 | 100 | 33.7 | – | – | –
2 | CC(=O)C(=NNc1ccccc1C(=O)O)C(=O)Nc1nc(C)c(C(=O)O)s1 [S3-01] | 62.3 | 5.532 (2×) and 2.66 | 13.1915 and 15.7447 and 16.7021 | 9.043 and 12.234 and 13.5106 | 12.234 and 16.7021 and 15.1064 | 42.234 and 40.3192 and 42.5532 | 61.7021 and 57.234 and 62.3404 | 74.1489 and 77.0213 and 79.8936 | 99.3617 (2×) and 99.0426 | 100 | 211 | – | – | –
3 | CCOC(=O)c1sc(NC(=O)C(=NNc2cccc(C(=O)O)c2)C(C)=O)nc1C [S3-03] | 33.9 | 4.313 and 4.012 and -1.404 | 4.012 and 1.304 and -0.5015 | 11.5346 and 24.4734 and 19.659 | 33.8014 and 30.1906 and 37.1113 | 47.6429 and 50.0502 and 47.342 | 51.8556 and 56.9709 and 59.3781 | 77.4323 and 79.5386 and 69.007 | 99.0973 and 98.7964 (2×) | 100 | 33.7 | 0.36 µM | – | –
4 | CCOC(=O)c1sc(NC(=O)C(=NNc2ccc(C(=O)O)cc2)C(C)=O)nc1C [S3-02] | 41.9 | 0.3058 and -2.446 and -0.3058 | 12.2324 and 9.48 and 14.6789 | 19.5719 and 20.7951 and 20.4893 | 19.5719 and 21.7125 and 20.1835 | 22.9358 and 29.3578 (2×) | 32.1101 and 33.9449 and 35.474 | 59.0214 and 60.5505 and 61.1621 | 81.6514 and 80.7339 and 87.7676 | 100 | 38 | 1.24 µM and > 1 µM | – | –
5 | GST tag recombinant rat sRANKL (GST-sRANKL) (ligand, UniProt Q9ESE2 160-318, looked up, also called soluble RANKL; source: E. coli BL21 (DE3), purified (glutathione sepharose, Superdex 200 Increase)) KPEAQPFAHLTINAADIPSGSHKVSLSSWYHDRGWAKISNMTLSNGKLRVNQDGFYYLYANICFRHHETSGSVPADYLQLMVYVVKTSIKIPSSHNLMKGGSTKNWSGNSEFHFYSINVGGFFKLRAGEEISVQVSNPSLLDPDQDATYFGAFKVQDID | – | – | – | – | – | – | – | – | – | – | – | – | binds | –
6 | label-free rat sRANKL (wild type) (ligand, UniProt Q9ESE2 160-318, looked up, RANKL, rat, soluble form sRANKL; also called WT sRANKL; soluble RANKL; source: E. coli BL21 (DE3), purified (Ni-NTA, released by Ulp1, HiLoad Superdex 200); not shown: His6, N-terminal, cleaved; SUMO, N-terminal, cleaved) KPEAQPFAHLTINAADIPSGSHKVSLSSWYHDRGWAKISNMTLSNGKLRVNQDGFYYLYANICFRHHETSGSVPADYLQLMVYVVKTSIKIPSSHNLMKGGSTKNWSGNSEFHFYSINVGGFFKLRAGEEISVQVSNPSLLDPDQDATYFGAFKVQDID | – | – | – | – | – | – | – | – | – | – | – | – | – | 3
